Each compound was assayed against CDK2/Cyclin E1 (Homo sapiens (Human), UniProt P24941) (assay: CDK2/Cyclin E1 HTRF enzyme activity assay). Conditions: 1 mM ATP.
Format: biochemical
Protocol: Assays are conducted in white 384-well polystyrene plates in a final reaction volume of 8 μL. […] HTRF signals are read after 1 hour at room temperature on a PHERAstar FS plate reader (BMG Labtech). Data is analyzed with IDBS XLFit and GraphPad Prism 5.0 software using a three or four parameter dose response curve to determine IC50 for each compound.

IC50, < 50 nM:
Cc1cc(CN2CCN(CC3CC3)CC2)ccc1-n1cc(-c2nc(NC3CCN(S(=O)(=O)c4cn(C)cn4)CC3)ncc2Cl)cn1 [Example 246, 5-Chloro-4-(1-(4-((4-(cyclopropylmethyl)piperazin-1-yl)methyl)-2-methylphenyl)-1H-pyrazol-4-yl)-N-(1-((1-methyl-1H-imidazol-4-yl)sulfonyl)piperidin-4-yl)pyrimidin-2-amine]
Cc1cc(CN2CCN(C(C)C)CC2)ccc1-n1cc(-c2nc(NC3CCN(S(=O)(=O)c4cn(C)cn4)CC3)ncc2Cl)cn1 [Example 247, 5-Chloro-4-(1-(4-((4-isopropylpiperazin-1-yl)methyl)-2-methylphenyl)-1H-pyrazol-4-yl)-N-(1-((1-methyl-1H-imidazole-4-yl)sulfonyl)piperidin-4-yl)pyrimidin-2-amine]
Cc1cc(CN2CCN(C)C(=O)C2)ccc1-n1cc(-c2nc(NC3CCN(S(=O)(=O)c4cn(C)cn4)CC3)ncc2Cl)cn1 [Example 248, 4-(4-(4-(5-Chloro-2-((1-((1-methyl-1H-imidazol-4-yl)sulfonyl)piperidin-4-yl)amino)pyrimidin-4-yl)-1H-pyrazol-1-yl)-3-methylbenzyl)-1-methylpiperazin-2-one]
Cc1nc(CN2CCN(C)CC2)ccc1-n1cc(-c2nc(NC3CCN(S(=O)(=O)c4cn(C)cn4)CC3)ncc2Cl)cn1 [Example 249, 5-Chloro-N-(1-((1-methyl-1H-imidazol-4-yl)sulfonyl)piperidin-4-yl)-4-(1-(2-methyl-6-((4-methylpiperazin-1-yl)methyl)pyridin-3-yl)-1H-pyrazol-4-yl)pyrimidin-2-amine]
CCN1CCN(Cc2ccc(-n3cc(-c4nc(NC5CCN(S(=O)(=O)c6cn(C)cn6)CC5)ncc4Cl)cn3)c(C)n2)CC1 [Example 250, 5-Chloro-4-(1-(6-((4-ethylpiperazin-1-yl)methyl)-2-methylpyridin-3-yl)-1H-pyrazol-4-yl)-N-(1-((1-methyl-1H-imidazol-4-yl)sulfonyl)piperidin-4-yl)pyrimidin-2-amine]
Cc1nc(CN2CCN(C(C)C)CC2)ccc1-n1cc(-c2nc(NC3CCN(S(=O)(=O)c4cn(C)cn4)CC3)ncc2Cl)cn1 [Example 251, 5-Chloro-4-(1-(6-((4-isopropylpiperazin-1-yl)methyl)-2-methylpyridin-3-yl)-1H-pyrazol-4-yl)-N-(1-((1-methyl-1H-imidazol-4-yl)sulfonyl)piperidin-4-yl)pyrimidin-2-amine]
Cc1nc(CN2CCN(C)CC2)ccc1-n1cc(-c2nc(NC3CCN(S(=O)(=O)c4cn(C)cn4)CC3)ncc2C(F)(F)F)cn1 [Example 252, N-(1-((1-Methyl-1H-imidazol-4-yl)sulfonyl)piperidin-4-yl)-4-(1-(2-methyl-6-((4-methylpiperazin-1-yl)methyl)pyridin-3-yl)-1H-pyrazol-4-yl)-5-(trifluoromethyl)pyrimidin-2-amine]
CCN1CCN(Cc2ccc(-n3cc(-c4nc(NC5CCN(S(=O)(=O)c6cn(C)cn6)CC5)ncc4C(F)(F)F)cn3)c(C)n2)CC1 [Example 253, 4-(1-(6-((4-Ethylpiperazin-1-yl)methyl)-2-methylpyridin-3-yl)-1H-pyrazol-4-yl)-N-(1-((1-methyl-1H-imidazol-4-yl)sulfonyl)piperidin-4-yl)-5-(trifluoromethyl)pyrimidin-2-amine]
Cc1nc(CN2CCN(C(C)C)CC2)ccc1-n1cc(-c2nc(NC3CCN(S(=O)(=O)c4cn(C)cn4)CC3)ncc2C(F)(F)F)cn1 [Example 254, 4-(1-(6-((4-Isopropylpiperazin-1-yl)methyl)-2-methylpyridin-3-yl)-1H-pyrazol-4-yl)-N-(1-((1-methyl-1H-imidazol-4-yl)sulfonyl)piperidin-4-yl)-5-(trifluoromethyl)pyrimidin-2-amine]
Cc1nc(CN2CCN(C)CC2)ccc1-n1cc(-c2nc(N[C@H]3CCN(S(=O)(=O)c4cn(C)cn4)C[C@H]3C)ncc2C(F)(F)F)cn1 [Example 255, N-((3R,4S)-3-methyl-1-((1-methyl-1H-imidazol-4-yl)sulfonyl)piperidin-4-yl)-4-(1-(2-methyl-6-((4-methylpiperazin-1-yl)methyl)pyridin-3-yl)-1H-pyrazol-4-yl)-5-(trifluoromethyl)pyrimidin-2-amine]
CCN1CCN(Cc2ccc(-n3cc(-c4nc(N[C@H]5CCN(S(=O)(=O)c6cn(C)cn6)C[C@H]5C)ncc4C(F)(F)F)cn3)c(C)n2)CC1 [Example 256, 4-(1-(6-((4-Ethylpiperazin-1-yl)methyl)-2-methylpyridin-3-yl)-1H-pyrazol-4-yl)-N-((3R,4S)-3-methyl-1-((1-methyl-1H-imidazol-4-yl)sulfonyl)piperidin-4-yl)-5-(trifluoromethyl)pyrimidin-2-amine]
Cc1nc(CN2CCN(C(C)C)CC2)ccc1-n1cc(-c2nc(N[C@H]3CCN(S(=O)(=O)c4cn(C)cn4)C[C@H]3C)ncc2C(F)(F)F)cn1 [Example 257, 4-(1-(6-((4-Isopropylpiperazin-1-yl)methyl)-2-methylpyridin-3-yl)-1H-pyrazol-4-yl)-N-((3R,4S)-3-methyl-1-((1-methyl-1H-imidazol-4-yl)sulfonyl)piperidin-4-yl)-5-(trifluoromethyl)pyrimidin-2-amine]
CN1CCN(Cc2ccc(-n3cc(-c4nc(NC5CCN(S(=O)(=O)c6ccccn6)CC5)ncc4C#N)cn3)c(Cl)c2)CC1 [Example 258, 4-(1-(2-Chloro-4-((4-methylpiperazin-1-yl)methyl)phenyl)-1H-pyrazol-4-yl)-2-((1-(pyridin-2-ylsulfonyl)piperidin-4-yl)amino)pyrimidine-5-carbonitrile]
CN1CCN(Cc2ccc(-n3cc(-c4nc(NC5CCN(S(=O)(=O)C6CC6)CC5)ncc4C#N)cn3)c(Cl)c2)CC1 [Example 259, 4-(1-(2-Chloro-4-((4-methylpiperazin-1-yl)methyl)phenyl)-1H-pyrazol-4-yl)-2-((1-(cyclopropylsulfonyl)piperidin-4-yl)amino)pyrimidine-5-carbonitrile]
CN1CCN(Cc2ccc(-n3cc(-c4nc(NC5CCN(S(=O)(=O)c6cn(C)cn6)CC5)ncc4C#N)cn3)c(Cl)c2)CC1 [Example 261, 4-(1-(2-Chloro-4-((4-methylpiperazin-1-yl)methyl)phenyl)-1H-pyrazol-4-yl)-2-((1-((1-methyl-1H-imidazol-4-yl)sulfonyl)piperidin-4-yl)amino)pyrimidine-5-carbonitrile]
Cc1nc(CNC(C)(C)C)ccc1-n1cc(-c2nc(NC3CCN(S(C)(=O)=O)CC3)ncc2C#N)cn1 [Example 262, 4-(1-(6-((tert-Butylamino)methyl)-2-methylpyridin-3-yl)-1H-pyrazol-4-yl)-2-((1-(methylsulfonyl)piperidin-4-yl)amino)pyrimidine-5-carbonitrile]
Cc1nc(CNC(C)(C)C2CC2)ccc1-n1cc(-c2nc(NC3CCN(S(C)(=O)=O)CC3)ncc2C#N)cn1 [Example 263, 4-(1-(6-(((2-Cyclopropylpropan-2-yl)amino)methyl)-2-methylpyridin-3-yl)-1H-pyrazol-4-yl)-2-((1-(methylsulfonyl)piperidin-4-yl)amino)pyrimidine-5-carbonitrile]
Cc1nc(CNC(C)(C)C(N)=O)ccc1-n1cc(-c2nc(NC3CCN(S(C)(=O)=O)CC3)ncc2C#N)cn1 [Example 264, 2-(((5-(4-(5-Cyano-2-((1-(methylsulfonyl)piperidin-4-yl)amino)pyrimidin-4-yl)-1H-pyrazol-1-yl)-6-methylpyridin-2-yl)methyl)amino)-2-methylpropanamide]
Cc1nc(CN[C@]2(C)C[C@H](O)C2)ccc1-n1cc(-c2nc(NC3CCN(S(C)(=O)=O)CC3)ncc2C#N)cn1 [Example 265]
CNCc1ccc(-n2cc(-c3nc(NC4CCN(S(=O)(=O)c5cn(C)cn5)CC4)ncc3Cl)cn2)c(C)n1 [Example 266, 5-Chloro-N-(1-((1-methyl-1H-imidazol-4-yl)sulfonyl)piperidin-4-yl)-4-(1-(2-methyl-6-((methylamino)methyl)pyridin-3-yl)-1H-pyrazol-4-yl)pyrimidin-2-amine]
CCNCc1ccc(-n2cc(-c3nc(NC4CCN(S(=O)(=O)c5cn(C)cn5)CC4)ncc3Cl)cn2)c(C)n1 [Example 267, 5-Chloro-4-(1-(6-((ethylamino)methyl)-2-methylpyridin-3-yl)-1H-pyrazol-4-yl)-N-(1-((1-methyl-1H-imidazol-4-yl)sulfonyl)piperidin-4-yl)pyrimidin-2-amine]
CNCc1ccc(-n2cc(-c3nc(NC4CCN(S(=O)(=O)c5cn(C)cn5)CC4)ncc3C(F)(F)F)cn2)c(C)n1 [Example 268, N-(1-((1-Methyl-1H-imidazol-4-yl)sulfonyl)piperidin-4-yl)-4-(1-(2-methyl-6-((methylamino)methyl)pyridin-3-yl)-1H-pyrazol-4-yl)-5-(trifluoromethyl)pyrimidin-2-amine]
CCNCc1ccc(-n2cc(-c3nc(NC4CCN(S(=O)(=O)c5cn(C)cn5)CC4)ncc3C(F)(F)F)cn2)c(C)n1 [Example 269, 4-(1-(6-((Ethylamino)methyl)-2-methylpyridin-3-yl)-1H-pyrazol-4-yl)-N-(1-((1-methyl-1H-imidazol-4-yl)sulfonyl)piperidin-4-yl)-5-(trifluoromethyl)pyrimidin-2-amine]
CNCc1ccc(-n2cc(-c3nc(N[C@H]4CCN(S(=O)(=O)c5cn(C)cn5)C[C@H]4C)ncc3C(F)(F)F)cn2)c(C)n1 [Example 270, N-((3R,4S)-3-Methyl-1-((1-methyl-1H-imidazol-4-yl)sulfonyl)piperidin-4-yl)-4-(1-(2-methyl-6-((methylamino)methyl)pyridin-3-yl)-1H-pyrazol-4-yl)-5-(trifluoromethyl)pyrimidin-2-amine]

From patent US11472791B2 (Incyte Corporation, priority 2019, dated 2022)
